Reference: patent US5041567A, “Antibacterial monic acid derivatives” (Beecham Group plc, priority 1982, dated 1991)
Values after ≈ are worked out from the molar mass of the structure shown. Like-named read-outs stand apart in the source and are kept apart here.

Experiments:
[1] = tested on: Erysipelothrix rhusiopathiae NCTC 8163; test: MIC against veterinary bacteria in vitro
Protocol: (§1) The activity of the compounds of the Examples against various veterinarily important bacteria, was assayed in vitro using two-fold serial dilutions in Diagnostic Sensitivity Test Agar inoculated with 10^4 organisms.

[2] = tested on: Neisseria catarrhalis 1502; test: MIC against human bacteria in vitro; format: cell-based; conditions: Neisseria catarrhalis 1502, 5% chocolated horse blood agar, 18 hours
Staph. aureus Oxford = test: MIC against veterinary bacteria in vitro
Protocol: as §1

M. suipneumoniae NB12 = test: MIC against mycoplasma in vitro; format: cell-based
M. bovis NCTC 10131 = test: microbe, parasite or virus in culture; format: cell-based
[3] = tested on: Haemophilus influenzae Wy21; test: MIC against human bacteria in vitro; format: cell-based; conditions: Haemophilus influenzae Wy21, 5% chocolated horse blood agar, 18 hours
S. typhimurium S18 = test: MIC against veterinary bacteria in vitro
Protocol: as §1

[4] = tested on: Ps. aeruginosa NCTC 10662; test: MIC against human bacteria in vitro; format: cell-based; conditions: Ps. aeruginosa NCTC 10662, 5% chocolated horse blood agar, 18 hours
Past. haemolytica PA5 = test: MIC against veterinary bacteria in vitro
Protocol: as §1

E. coli NCTC 10418 = test: MIC against veterinary bacteria in vitro
Protocol: as §1

M. suipneumoniae JF 435 = test: MIC against mycoplasma in vitro; format: cell-based
[5] = tested on: M. suipneumoniae J2206/183^b; test: MIC against mycoplasma in vitro; format: cell-based
[6] = tested on: Strep. pyogenes R80/421-A; test: MIC against human bacteria in vitro; format: cell-based; conditions: Strep. pyogenes R80/421-A, 5% chocolated horse blood agar, 18 hours
Strep. uberis SPU1 = test: MIC against veterinary bacteria in vitro
Protocol: as §1

[7] = tested on: Corynebacterium pyogenes CY1; test: MIC against veterinary bacteria in vitro
Protocol: as §1

M. gallisepticum S6 = test: MIC against mycoplasma in vitro; format: cell-based
[8] = tested on: M. bovigenitalium ATCC 14173; test: MIC against mycoplasma in vitro; format: cell-based
[9] = tested on: Staph. aureus 152 (pen. sens); test: MIC against veterinary bacteria in vitro
Protocol: as §1

M. suipneumoniae Str. 11 = test: MIC against mycoplasma in vitro; format: cell-based
M. pneumoniae ATCC 15492 = test: MIC against mycoplasma in vitro; format: cell-based
[10] = tested on: M. suipneumoniae NCTC 10110; test: MIC against mycoplasma in vitro; format: cell-based
[11] = tested on: M. hyosynoviae ATCC 25591; test: MIC against mycoplasma in vitro; format: cell-based; conditions: M. hyosynoviae ATCC 25591, 6 days, 37° C.
[12] = Erysipelothrix rhusiopathiae, NCTC8163, 18 h
[13] = Mesomycoplasma hyopneumoniae, NB12, 144 h
[14] = Salmonella enterica, TYPHIMURIUM, 18 h
[15] = Pseudomonas aeruginosa, NCTC10662, read-out: MIC
[16] = Mannheimia haemolytica, PA5, 18 h
[17] = Escherichia coli, NCTC10418, 18 h
[18] = Mesomycoplasma hyopneumoniae, JF435, 144 h, M. suipneumoniae JF 435, 6 days, 37° C., read-out: MIC
[19] = Mesomycoplasma hyopneumoniae, 144 h, M. suipneumoniae J2206/183^b, 6 days, 37° C., read-out: MIC
[20] = Streptococcus pyogenes, read-out: MIC
[21] = Streptococcus uberis, SPU1, 18 h
[22] = Mycoplasmoides gallisepticum, 144 h, M. gallisepticum S6, 6 days, 37° C., read-out: MIC
[23] = 144 h, M. bovigenitalium ATCC 14173, 6 days, 37° C., read-out: MIC
[24] = Mesomycoplasma hyopneumoniae, STR.11, 144 h
[25] = Mycoplasmoides pneumoniae, ATCC15492, 144 h, M. pneumoniae ATCC 15492, 6 days, 37° C., read-out: MIC
[26] = Mesomycoplasma hyopneumoniae, NCTC10110, 144 h, M. suipneumoniae NCTC 10110, 6 days, 37° C., read-out: MIC
[27] = Mesomycoplasma hyopneumoniae, 144 h, M. suipneumoniae NB12, Friis broth, 0.9% agarose, 6 days, 37° C., read-out: MIC
[28] = Mycoplasmoides pneumoniae, ATCC15492, 144 h

C/C(=C\c1ncc(-c2ccc(C(=O)O)cc2)o1)C[C@@H]1OC[C@H](C[C@@H]2O[C@H]2[C@@H](C)[C@H](C)O)[C@@H](O)[C@H]1O [Example 17, Sodium 4-[2-(1-normon-2-yl)-5-oxazolyl] benzoate A]
MIC [1, 12]: 80 µg/mL
MIC ([2]; read-out: MIC): 8 µg/mL
MIC (Staph. aureus Oxford; Staphylococcus aureus, 18 h): 20 µg/mL
MIC (M. suipneumoniae NB12; [13]): 2.5 µg/mL
MIC (M. bovis NCTC 10131; NCTC10131, 144 h): 2.5 µg/mL
MIC ([3]; read-out: MIC): 2 µg/mL
MIC (S. typhimurium S18; [14]): > 80 µg/mL
MIC [4, 15]: > 64 µg/mL
MIC (Past. haemolytica PA5; [16]): > 80 µg/mL
MIC (E. coli NCTC 10418; [17]): > 80 µg/mL
MIC (M. suipneumoniae JF 435; [18]): 5 µg/mL
MIC [5, 19]: 5 µg/mL
MIC [6, 20]: 4 µg/mL
MIC (Strep. uberis SPU1; [21]): 1.25 µg/mL
MIC ([7]; CY1, 18 h): > 80 µg/mL
MIC (M. gallisepticum S6; [22]): > 10 µg/mL
MIC [8, 23]: 5 µg/mL
MIC ([9]; Staphylococcus aureus, 18 h): 10 µg/mL
MIC (M. suipneumoniae Str. 11; [24]): 2.5 µg/mL
MIC (M. pneumoniae ATCC 15492; [25]): > 10 µg/mL
MIC [10, 26]: > 10 µg/mL
MIC ([11]; 144 h, read-out: MIC): > 10 µg/mL

C/C(=C\c1ncc(-c2ccc(Br)cc2)o1)C[C@@H]1OC[C@H](C[C@@H]2O[C@H]2[C@@H](C)[C@H](C)O)[C@@H](O)[C@H]1O [Example 18, 5-p-Bromophenyl-2-(1-normon-2-yl) oxazole A]
MIC [1, 12]: 40 µg/mL (≈ 76.6 µM)
MIC ([2]; read-out: MIC): 4 µg/mL (≈ 7.66 µM)
MIC (Staph. aureus Oxford; Staphylococcus aureus, 18 h): 0.625 µg/mL (≈ 1.2 µM)
MIC (M. suipneumoniae NB12; [27]): 0.5 µg/mL (≈ 0.957 µM)
MIC (M. bovis NCTC 10131; NCTC10131, 144 h): 0.05 µg/mL (≈ 0.0957 µM)
MIC ([3]; read-out: MIC): 4 µg/mL (≈ 7.66 µM)
MIC (S. typhimurium S18; [14]): > 80 µg/mL
MIC [4, 15]: > 128 µg/mL
MIC (Past. haemolytica PA5; [16]): 40 µg/mL (≈ 76.6 µM)
MIC (E. coli NCTC 10418; [17]): > 80 µg/mL
MIC (M. suipneumoniae JF 435; [18]): 0.5 µg/mL (≈ 0.957 µM)
MIC ([5]; Mesomycoplasma hyopneumoniae, 144 h): 1 µg/mL (≈ 1.91 µM)
MIC [6, 20]: 2 µg/mL (≈ 3.83 µM)
MIC (Strep. uberis SPU1; [21]): < 0.039 µg/mL
MIC ([7]; CY1, 18 h): > 80 µg/mL
MIC (M. gallisepticum S6; Mycoplasmoides gallisepticum, S6, 144 h): 1 µg/mL (≈ 1.91 µM)
MIC ([8]; 144 h): 0.1 µg/mL (≈ 0.191 µM)
MIC ([9]; Staphylococcus aureus, 18 h): 0.312 µg/mL (≈ 0.597 µM)
MIC (M. suipneumoniae Str. 11; [24]): 0.25 µg/mL (≈ 0.479 µM)
MIC (M. pneumoniae ATCC 15492; [28]): 1 µg/mL (≈ 1.91 µM)
MIC ([10]; Mesomycoplasma hyopneumoniae, NCTC10110, 144 h): 1 µg/mL (≈ 1.91 µM)
MIC ([11]; 144 h, read-out: MIC): 0.5 µg/mL (≈ 0.957 µM)

C/C(=C\c1ncc(CCCCCCCCO)o1)C[C@@H]1OC[C@H](C[C@@H]2O[C@H]2[C@@H](C)[C@H](C)O)[C@@H](O)[C@H]1O [Example 19, 5-(8-Hydroxyoctyl)-2-(1-normon-2-yl) oxazole A]
MIC [1, 12]: > 80 µg/mL
MIC (Staph. aureus Oxford; Staphylococcus aureus, 18 h): 2.5 µg/mL (≈ 5.04 µM)
MIC (M. suipneumoniae NB12; [13]): 1 µg/mL (≈ 2.02 µM)
MIC (M. bovis NCTC 10131; NCTC10131, 144 h): 0.025 µg/mL (≈ 0.0504 µM)
MIC ([3]; read-out: MIC): 4 µg/mL (≈ 8.07 µM)
MIC (S. typhimurium S18; [14]): > 80 µg/mL
MIC [4, 15]: > 128 µg/mL
MIC (Past. haemolytica PA5; [16]): > 80 µg/mL
MIC (E. coli NCTC 10418; [17]): > 80 µg/mL
MIC (M. suipneumoniae JF 435; Mesomycoplasma hyopneumoniae, JF435, 144 h): 2.5 µg/mL (≈ 5.04 µM)
MIC [5, 19]: 5 µg/mL (≈ 10.1 µM)
MIC [6, 20]: 2 µg/mL (≈ 4.04 µM)
MIC (Strep. uberis SPU1; [21]): 0.625 µg/mL (≈ 1.26 µM)
MIC ([7]; CY1, 18 h): > 80 µg/mL
MIC (M. gallisepticum S6; [22]): 10 µg/mL (≈ 20.2 µM)
MIC ([8]; 144 h): 0.1 µg/mL (≈ 0.202 µM)
MIC ([9]; Staphylococcus aureus, 18 h): 1.25 µg/mL (≈ 2.52 µM)
MIC (M. suipneumoniae Str. 11; [24]): 1 µg/mL (≈ 2.02 µM)
MIC (M. pneumoniae ATCC 15492; [28]): 1 µg/mL (≈ 2.02 µM)
MIC [10, 26]: 5 µg/mL (≈ 10.1 µM)
MIC ([11]; 144 h, read-out: MIC): 0.5 µg/mL (≈ 1.01 µM)

CC(=Cc1cc(C)no1)CC1OCC(CC2OC2C(C)C(C)O)C(O)C1O (stereo not shown) [Example 30, 3-Methyl-5-(1-normon-2-yl) isoxazole A]
MIC ([1]; Erysipelothrix rhusiopathiae NCTC 8163, Diagnostic Sensitivity Test Agar, 18 hours): > 80 µg/mL
MIC [2]: 8.0 µg/mL (≈ 21 µM)
MIC (Staph. aureus Oxford; Staph. aureus Oxford, Diagnostic Sensitivity Test Agar, 18 hours): 2.5 µg/mL (≈ 6.55 µM)
MIC (M. suipneumoniae NB12; M. suipneumoniae NB12, Friis broth, 0.9% agarose, 6 days, 37° C.): 5.0 µg/mL (≈ 13.1 µM)
MIC (M. bovis NCTC 10131; M. bovis NCTC 10131, 6 days, 37° C.): 0.25 µg/mL (≈ 0.655 µM)
MIC [3]: < 0.06 µg/mL
MIC (S. typhimurium S18; S. typhimurium S18, Diagnostic Sensitivity Test Agar, 18 hours): > 80 µg/mL
MIC [4]: > 128 µg/mL
MIC (Past. haemolytica PA5; Past. haemolytica PA5, Diagnostic Sensitivity Test Agar, 18 hours): 10 µg/mL (≈ 26.2 µM)
MIC (E. coli NCTC 10418; E. coli NCTC 10418, Diagnostic Sensitivity Test Agar, 18 hours, 37° C.): > 80 µg/mL
MIC (M. suipneumoniae JF 435; M. suipneumoniae JF 435, 6 days, 37° C.): 5.0 µg/mL (≈ 13.1 µM)
MIC ([5]; M. suipneumoniae J2206/183^b, 6 days, 37° C.): 2.5 µg/mL (≈ 6.55 µM)
MIC [6]: 32 µg/mL (≈ 83.9 µM)
MIC (Strep. uberis SPU1; Strep. uberis SPU1, Diagnostic Sensitivity Test Agar, 18 hours): 10 µg/mL (≈ 26.2 µM)
MIC ([7]; Corynebacterium pyogenes CY1, Diagnostic Sensitivity Test Agar, 18 hours): > 80 µg/mL
MIC (M. gallisepticum S6; M. gallisepticum S6, 6 days, 37° C.): > 10 µg/mL
MIC ([8]; M. bovigenitalium ATCC 14173, 6 days, 37° C.): 0.25 µg/mL (≈ 0.655 µM)
MIC ([9]; Staph. aureus 152 (pen. sens), Diagnostic Sensitivity Test Agar, 18 hours): 2.5 µg/mL (≈ 6.55 µM)
MIC (M. suipneumoniae Str. 11; M. suipneumoniae Str. 11, 6 days, 37° C.): 2.5 µg/mL (≈ 6.55 µM)
MIC (M. pneumoniae ATCC 15492; M. pneumoniae ATCC 15492, 6 days, 37° C.): 10 µg/mL (≈ 26.2 µM)
MIC ([10]; M. suipneumoniae NCTC 10110, 6 days, 37° C.): 2.5 µg/mL (≈ 6.55 µM)
MIC [11]: 1.0 µg/mL (≈ 2.62 µM)

C/C(=C\c1cc(-c2ccccc2)no1)C[C@@H]1OC[C@H](C[C@@H]2O[C@H]2[C@@H](C)[C@H](C)O)[C@@H](O)[C@H]1O [Example 31, 5-(1-Normon-2-yl)-3-phenylisoxazole A]
MIC [1, 12]: > 80 µg/mL
MIC ([2]; read-out: MIC): 8 µg/mL (≈ 18 µM)
MIC (Staph. aureus Oxford; Staphylococcus aureus, 18 h): 20 µg/mL (≈ 45.1 µM)
MIC (M. suipneumoniae NB12; [27]): 10 µg/mL (≈ 22.5 µM)
MIC (M. bovis NCTC 10131; NCTC10131, 144 h): 1 µg/mL (≈ 2.25 µM)
MIC ([3]; read-out: MIC): 16 µg/mL (≈ 36.1 µM)
MIC (S. typhimurium S18; [14]): > 80 µg/mL
MIC [4, 15]: > 128 µg/mL
MIC (Past. haemolytica PA5; [16]): > 80 µg/mL
MIC (E. coli NCTC 10418; [17]): > 80 µg/mL
MIC (M. suipneumoniae JF 435; [18]): 10 µg/mL (≈ 22.5 µM)
MIC [5, 19]: 10 µg/mL (≈ 22.5 µM)
MIC [6, 20]: 128 µg/mL (≈ 289 µM)
MIC (Strep. uberis SPU1; [21]): 40 µg/mL (≈ 90.2 µM)
MIC ([7]; CY1, 18 h): > 80 µg/mL
MIC (M. gallisepticum S6; [22]): > 10 µg/mL
MIC [8, 23]: 5 µg/mL (≈ 11.3 µM)
MIC ([9]; Staphylococcus aureus, 18 h): 10 µg/mL (≈ 22.5 µM)
MIC (M. suipneumoniae Str. 11; Mesomycoplasma hyopneumoniae, 144 h, M. suipneumoniae Str. 11, 6 days, 37° C., read-out: MIC): 5 µg/mL (≈ 11.3 µM)
MIC (M. pneumoniae ATCC 15492; [25]): > 10 µg/mL
MIC [10, 26]: 10 µg/mL (≈ 22.5 µM)
MIC ([11]; 144 h, read-out: MIC): 10 µg/mL (≈ 22.5 µM)
